Reference: patent publication US20220268782A1, “METHODS FOR PREDICTING AND TREATING CARDIAC DYSFUNCTION” (INSERM (INSTITUT NATIONAL DE LA SANTÉ EAT DE LA RECHERCHE …, priority 2019, published 2022)

System: WT mice
Assay: In vivo subcutaneous PA treatment of WT mice: cardiac phenotyping
Description: […] […] General state of the mice (body weight & wellbeing) was closely monitored.
Data acquisition for a single cohort was performed by a single operator (JT or ER). Images were acquired from a parasternal position at the level of the papillary muscles using a 13-MHz linear-array transducer with a digital ultrasound system (Vivid 7, GE Medical System, Horton, Norway). Left ventricular dimensions and ejection fraction, anterior and posterior wall thicknesses were serially obtained from M-mode acquisition. Relative LV wall thickness (RWT) was defined as the sum of septal and posterior wall thickness over LV end-diastolic diameter, and LV mass was determined using the uncorrected cube assumption formula (LV mass=(AWTd+LVEDD+PWTd)^3−(LVEDD)^3). Peak systolic values of radial strain rate of the anterior and posterior wall were obtained using Tissue Doppler Imaging (TDI) as previously described.^2 TDI loops were acquired from parasternal view with a careful alignment with the radial component of the deformation' at a mean frame rate of 514 fps and a depth of 1 cm. The Nyquist velocity limit was set at 12 cm/s. Radial strain rate analysis was performed offline using the EchoPac Software (GE Medical Systems) blindly by a single operator (GD). Peak systolic of radial strain rate was computed from a region of interest positioned in the mid anterior wall and was measured over an axial distance of 0.6 mm. The temporal smoothing filters were turned off for all measurements. Because of the inevitable respiratory variability, we averaged peak systolic of radial strain rate on 8 consecutive cardiac cycles.
In vivo haemodynamic measurements were performed just before mice of indicated ages were sacrificed.' Haemodynamic evaluation was performed in mice placed on a homeothermic operating table in supine position under 1.5% isoflurane anesthesia with spontaneous breathing. A 1.4-Fr microcatheter (Millar Instruments, Houston, USA) was calibrated manually before each experiment, inserted via the right carotid artery into the aorta and subsequently advanced to the left ventricle. Data were collected after at least 10 min of baseline, using the lowest isoflurane concentration tolerated to ensure minimal cardiodepression during measurement of peak rates of isovolumetric pressure development (dP/dtmax) and pressure decay (dP/dtmin). The microcatheter was then withdrawn to the aorta for measurement of systolic and diastolic pressure. Data were analyzed using the IOX software (EMKA, France).
All mice were weighed, euthanized by cervical dislocation, followed by rapid excision of the organs of interest. The heart was cannulated through the aorta for perfusion with ice-cold 1×PBS, then blotted and weighed. The heart was cut in half perpendicular to its axis: the apical two-third was snap-frozen in liquid nitrogen, whilst the basic one-third was recannulated through the aorta, perfused with 10% formalin for histology. Hearts were kept in formalin at 4° C. for at least 24-48 hours before embedding. Snap-frozen tissues were kept at −80° C., until they were powdered using a mortar and pestle cooled with liquid nitrogen and collected as aliquots. Livers and kidneys were processed in a similar manner.
Formalin-fixed organs were embedded in paraffin. Cross-sections were cut into 7 μm thickness using a rotary microtome (Leica). To assess cardiac fibrosis, Sirius red staining was performed, followed by dehydration and mounting with Eukitt quick-hardening mounting medium (Sigma). To visualise cardiomyocyte hypertrophy, sections were incubated in 2 μg/mL Texas red-conjugated wheat germ agglutinin (WGA; Invitrogen) in 1×PBS at room temperature for 45 minutes. Slides were then mounted with fluorescent mounting media (Abcam). Images were acquired using a Zeiss fluorescent microscope. Whole-mount preparations were made of hearts and livers of 2- and 15-month-old p21-mCherry reporter mice. […]

[1] = older group (11 month-old at start), PA 200 mg/kg twice a day, one month

With `N[C@@H](Cc1ccccc1)C(=O)O` [PA, (S)-2-Amino-3-phenylpropanoic acid] the “course of drug treatment (body weight & wellbeing monitored)” value (PA 200 mg/kg twice a day subcutaneously for a month) was “completed as scheduled without incidents”, the LV ejection fraction (PA 200 mg/kg twice a day, one month, FIG. 3h) was “unaltered” and the “Plasma PA levels” value (WT mice 5 vs. 11 month-old at start, PA 200 mg/kg twice a day over one month) was “increased in both age-groups, but were considerably higher in older animals”. For the same molecule, the “tolerability / weight loss” value (WT mice, PA 200 mg/kg twice a day over one month, data not shown) was “tolerated PA treatment well without significant weight loss”, the “hepatic PA levels” value (livers of PA-treated 6-month-old WT mice vs. 12-month-old WT mice, FIG. 4m) was “comparable” and the “cardiac hypertrophy (HW/TL)” value [1] was “no change”. For the same molecule, the “cardiomyocyte size (cross-sectional area)” value [1] was “no change”, the “myocardial interstitial fibrosis (Sirius red)” value [1] was “no change” and the “cardiac hypertrophy (HW/TL)” value (young animals (5 month-old at start), PA 200 mg/kg twice a day, one month, FIG. 3c) was “increase”. The “cardiomyocyte size (cross-sectional area)” value (young animals, PA 200 mg/kg twice a day, one month, FIG. 3e) was “increase”, the “myocardial interstitial fibrosis (Sirius red)” value (young animals, PA 200 mg/kg twice a day, one month, FIG. 3f) was “increase” and the systolic strain rate (young group, PA 200 mg/kg twice a day, one month, FIG. 3i) was “reduced”. The dP/dtmax (young group, PA 200 mg/kg twice a day, one month, FIG. 3j) was “reduced”, the dP/dtmin (young group, PA 200 mg/kg twice a day, one month, FIG. 3k) was “reduced” and the “myocardial senescence: p21, Pah, Gch1, 2-SC and 4-HNE” value (young hearts, PA 200 mg/kg twice a day, one month, FIG. 3l) was “upregulation”.
